From US20090048285A1, “Pyrrolopyridines Useful in the Treatment of Inflammation” (priority 2005, published 2009)

Biological target: T1, mPGES-1 (Homo sapiens, UniProt O14684)
T1 construct: made in house; host or cells: E. coli (membrane fraction)
T1 sequence (O14684 1-152): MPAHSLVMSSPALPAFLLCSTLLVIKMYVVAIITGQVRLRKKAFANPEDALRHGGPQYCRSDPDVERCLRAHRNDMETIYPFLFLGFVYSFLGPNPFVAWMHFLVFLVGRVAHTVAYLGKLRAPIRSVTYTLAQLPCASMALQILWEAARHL
Experiment: mPGES-1 assay: conversion of PGH2 to PGE2, HPLC analysis
Format: biochemical
Settings: mPGES-1 expressed in E. coli; 25 min preincubation with inhibitor, 60 s with PGH2, room temperature
Experimental: In the assay in PGES-1 catalyses the reaction where the substrate PGH2 is converted to PGE2. mPGES-1 is expressed in E. coli and the membrane fraction is dissolved in 20 mM NaPi-buffer pH 8.0 and stored at −80° C. In the assay mPGES-1 is dissolved in 0.1M KPi-buffer pH 7.35 with 2.5 mM glutathione. The stop solution consists of H2O/MeCN (7/3), containing FeCl2 (25 mM) and HCl (0.15 M). The assay is performed at room temperature in 96-well plates. Analysis of the amount of PGE2 is performed with reversed phase HPLC (Waters 2795 equipped with a 3.9×150 mm C18 column). The mobile phase consists of H2O/MeCN (7/3), containing TFA (0.056%), and absorbance is measured at 195 nm with a Waters 2487 LTV-detector.
The following is added chronologically to each well: • 1. 100 μL mPGES-1 in KPi-buffer with glutathione. Total protein concentration: 0.02 mg/mL. • 2. 1 μL inhibitor in DMSO. Incubation of the plate at room temperature for 25 minutes. • 3. 4 μL of a 0.25 mM PGH2 solution. Incubation of the plate at room temperature for 60 seconds. • 4. 100 μL stop solution. • 180 μL per sample is analyzed with HPLC.

CC(C)Oc1ccc(-n2c(C(=O)O)cc3cc(Oc4cccc(C(F)(F)F)c4)ncc32)cc1 [Example 1, 1-(4-Isopropoxyphenyl)-5-(3-trifluoromethylphenoxy)pyrrolo[2,3-c]pyridine-2-carboxylic Acid]
IC50: 2300 nM

CC(C)Oc1ccc(-n2c(C(=O)O)cc3c(-c4ccc(C(F)(F)F)cc4)nc(Cl)cc32)cc1 [Example 3, 6-Chloro-1-(4-isopropoxyphenyl)-4-(4-trifluoromethylphenyl)pyrrolo[3,2-c]pyridine-2-carboxylic acid]
IC50: 750 nM
